Results as given in patent publication US7763772B2, “Activation of the arabidopsis hypertall (HYT1/YUCCA6) locus affects several auxin mediated responses” (Purdue Research Foundation, priority 2006, dated 2010).

Key:
[1] = system: Arabidopsis thaliana plants (wild-type, yucca6-1D, yucca6-2D); experiment: Resistance to the toxic Trp analog 5-methyl-Trp in MS medium; assay type: in vivo; details: MS medium containing 80 NM 5-methyl-Trp
Description: It has been proposed that plants use […] and Trp-independent routes to synthesize auxin (Normanly et al., 1993; Müller and Weiler, 2000; Woodward and Bartel, 2005). To investigate in which pathway YUCCA6 may participate, we tested the resistance of yucca6-1D and yucca6-2D to the toxic Trp analog, 5-methyl-Trp.

[2] = target: T1, MBP:YUCCA6 fusion protein (Arabidopsis thaliana, UniProt Q8VZ59); experiment: Recombinant YUCCA6 enzyme activity (substrate-dependent NADPH oxidation); assay type: biochemical; details: tryptamine as a substrate; 0.1 mM NADPH, pH 8.0, 22° C.
T1 construct: The full-length YUCCA6 ORF was synthesized from Col-0 cDNA by PCR amplification and subcloned into the expression vector pMAL-c2; made in house; host or cells: Escherichia coli BL21
T1 sequence (Q8VZ59 1-417): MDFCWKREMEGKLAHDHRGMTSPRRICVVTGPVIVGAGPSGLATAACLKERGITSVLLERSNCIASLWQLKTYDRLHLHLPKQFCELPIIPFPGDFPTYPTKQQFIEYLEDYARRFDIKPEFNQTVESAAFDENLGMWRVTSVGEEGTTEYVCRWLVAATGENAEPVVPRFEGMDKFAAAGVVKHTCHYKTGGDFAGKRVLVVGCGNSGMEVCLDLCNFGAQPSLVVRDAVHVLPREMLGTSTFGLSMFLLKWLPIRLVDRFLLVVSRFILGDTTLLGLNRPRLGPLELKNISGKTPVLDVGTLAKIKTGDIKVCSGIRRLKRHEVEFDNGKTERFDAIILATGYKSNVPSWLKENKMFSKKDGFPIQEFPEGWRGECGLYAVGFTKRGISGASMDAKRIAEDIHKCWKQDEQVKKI
Description: (§1) It has been reported that maltose-binding protein (MBP):YUCCA1 fusion proteins have catalytic activity to convert tryptamine to N-hydroxyl tryptamine (Zhao et al., 2001). To investigate if YUCCA6 also is involved in oxidation of tryptamine, we tested YUCCA6 activity with MBP:YUCCA6 fusion protein expressed in and purified from bacteria. It is known that FMOs oxidize NADPH by transfer of electrons to oxygen. […] The catalytic activity of YUCCA6 for oxidation of tryptamine, together with resistance of yucca6 mutants to 5-methyl-Trp, strongly implies that YUCCA6 has an important function in Trp-dependent auxin biosynthesis.
(§2) The full-length YUCCA6 ORF was synthesized from Col-0 cDNA by PCR amplification and subcloned into the expression vector pMAL-c2. […] The protein contents were measured using BIO-RAD Protein Assay (no. 500-0006), and protein was separated by SDS-PAGE.
(§3) The activities of MBP:YUCCA6 and MBP proteins were measured by determining the rates of substrate-dependent NADPH oxidation consumption. […] The rates of NADPH oxidation caused by addition of tryptamine were monitored at 340 nm for 5 minutes at 22° C. using a UV-visible spectrophotometer (model UV-1601; Shimazu). The change in absorbance per minute was converted to micromoles NADPH consumed per minute using the extinction coefficient 6,220 M^−1 cm^−1 for NADPH. […]

YUCCA6 gene expression = YUCCA6 gene expression after hormone treatment (RT-PCR); assay type: in vivo, Arabidopsis thaliana; details: RNA from 2-week old seedlings including roots
Experimental: (§4) YUCCA gene expression was checked by RT-PCR. RNA was prepared from 2-week old seedlings including roots. […] UBC was used as a loading control.
(§5) Arabidopsis YUCCA6 is one of 11 yucca family members. YUCCA6 belongs to the same sub-family with YUCCA2. We determined if YUCCA6 gene expression is regulated by ABA.

YUCCA2 gene expression = YUCCA2 gene expression after ABA treatment (RT-PCR); assay type: in vivo, Arabidopsis thaliana; details: RNA from 2-week old seedlings including roots
Experimental: as §4, §5

YUCCA 1 gene expression = experiment: YUCCA1 gene expression after ABA treatment (RT-PCR); assay type: in vivo, Arabidopsis thaliana; details: RNA from 2-week old seedlings including roots
Experimental: as §4, §5

[3] = substrate: NCCc1c[nH]c2ccccc12; experiment: Recombinant YUCCA6 enzyme activity (substrate-dependent NADPH oxidation); assay type: biochemical, Arabidopsis thaliana; details: other: tryptamine as a substrate, 0.1 mM NADPH, pH 8.0, 22° C.
Description: as §1, §2, §3

Molecule: Cc1ccc2[nH]cc(C[C@H](N)C(=O)O)c2c1 [5-methyl-Trp]
- survival and growth of wild-type plants ([1]; wild-type plants): could not
- survival and growth of yucca6-1D plants ([1]; yucca6-1D): could survive and grow
- survival and growth of yucca6-2D plants ([1]; yucca6-2D): could survive and grow

Molecule: NCCc1c[nH]c2ccccc12 [tryptamine]
- Vmax [2]: 9.46 Nmol NADPH min^−1 mg^−1

Molecule: NC1(C(=O)O)CC1 [ACC, 1-aminocylopropane-1-carboxylic acid]
- regulation of YUCCA6 transcript level (YUCCA6 gene expression): could not regulate

Molecule: CC1=CC(=O)CC(C)(C)[C@@]1(O)/C=C/C(C)=C\C(=O)O [ABA, Abscisic Acid]
- regulation of YUCCA6 transcript level (YUCCA6 gene expression): down-regulated
- regulation of YUCCA2 gene expression (YUCCA2 gene expression): down-regulated
- regulation of YUCCA 1 gene expression (YUCCA 1 gene expression): does not change

B1: MBP:YUCCA6 fusion protein (Arabidopsis thaliana) (protein)
chain: MDFCWKREMEGKLAHDHRGMTSPRRICVVTGPVIVGAGPSGLATAACLKERGITSVLLERSNCIASLWQLKTYDRLHLHLPKQFCELPIIPFPGDFPTYPTKQQFIEYLEDYARRFDIKPEFNQTVESAAFDENLGMWRVTSVGEEGTTEYVCRWLVAATGENAEPVVPRFEGMDKFAAAGVVKHTCHYKTGGDFAGKRVLVVGCGNSGMEVCLDLCNFGAQPSLVVRDAVHVLPREMLGTSTFGLSMFLLKWLPIRLVDRFLLVVSRFILGDTTLLGLNRPRLGPLELKNISGKTPVLDVGTLAKIKTGDIKVCSGIRRLKRHEVEFDNGKTERFDAIILATGYKSNVPSWLKENKMFSKKDGFPIQEFPEGWRGECGLYAVGFTKRGISGASMDAKRIAEDIHKCWKQDEQVKKI
notes: The full-length YUCCA6 ORF was synthesized from Col-0 cDNA by PCR amplification and subcloned into the expression vector pMAL-c2; made in house; host or cells: Escherichia coli BL21
- Km [3]: 274 µM
